Data published in patent US12049469B2, “Compound and structural body for detecting hydrogen sulfide” (CANON KABUSHIKI KAISHA, priority 2020, dated 2024).

Assays:
[1] = Fluorescence intensity change of compound solution on addition of sodium sulfide (hydrogen sulfide donor) in phosphate-buffered saline; settings: for ΔF0 (0 mM sodium sulfide), amount of change in fluorescence intensity / ΔF (0.2 mM sodium sulfide), amount of change in fluorescence intensity F2−F1: compound 5 μM in 1× phosphate-buffered saline pH 7.4; for ΔF0 (0 mM sodium sulfide), amount of change in fluorescence intensity: 10 minutes; for ΔF (0.2 mM sodium sulfide), amount of change in fluorescence intensity F2−F1: 10 minutes after addition; for ΔF − ΔF0, difference in amount of change in fluorescence intensity in presence or absence of sodium sulfide: compound 5 μM in PBS pH 7.4, 0.2 mM vs 0 mM sodium sulfide; for Sensitivity: grade based on ΔF−ΔF0, A to C acceptable, D unacceptable
Protocol: The compound 1 was added to 1× phosphate-buffered saline (3 mL, pH 7.4) at a concentration of 5 μM. The fluorescence intensity of the solution was immediately measured with a fluorescence spectrophotometer F-4500 (manufactured by Hitachi High-Technologies Corporation). Sodium sulfide serving as a hydrogen sulfide donor was then added to the solution at 0.2 mM. After standing for 10 minutes, the fluorescence intensity of the solution was measured. The fluorescence intensity before the addition of sodium sulfide was denoted as F1, and the fluorescence intensity 10 minutes after the addition of sodium sulfide was denoted as F2. The amount of change in fluorescence intensity (ΔF) due to the addition of sodium sulfide was calculated using the formula F2−F1. The concentration of sodium sulfide was changed to 0 mM, and the amount of change in fluorescence intensity (ΔF0) of the solution was calculated in the same manner. The difference in the amount of change in fluorescence intensity (ΔF−ΔF0) in the presence or absence of sodium sulfide was calculated.
The evaluation is based on the following criteria in the exemplary embodiments of the present disclosure. A to C are acceptable levels, and D is an unacceptable level.

[2] = Behaviour of detection material in aqueous solution (precipitation, water solubility); format: physicochemical
Source text: To detect hydrogen sulfide and metabolites in an aqueous specimen, such as a biological sample, the present inventors have examined whether the compound disclosed as a detection material in Non Patent Literature 1 can detect hydrogen sulfide in neutral phosphate-buffered saline.

| Compound | ΔF0 (0 mM sodium sulfide), amount of change in fluorescence intensity [1] | ΔF (0.2 mM sodium sulfide), amount of change in fluorescence intensity F2−F1 [1] | ΔF − ΔF0, difference in amount of change in fluorescence intensity in presence or absence of sodium sulfide [1] | Sensitivity [1] | Precipitate or aggregate formation in solution ([2]; neutral phosphate-buffered saline) | Water solubility (comparison) ([2]; compared with o-methyl fluorescein) |
| --- | --- | --- | --- | --- | --- | --- |
| CN(C)c1ccc(/N=N/c2ccc(C(=O)NCCCOC(=O)/C(C#N)=C/c3ccccc3C(=O)Oc3ccc4c(c3)Oc3cc(O)ccc3C43OC(=O)c4ccccc43)cc2)cc1 (stereo not drawn) [Compound 1] | 1.1 | 42.8 | 41.7 | A (ΔF−ΔF0 is 40 or more) |  |  |
| COC(=O)/C(C#N)=C/c1ccccc1C(=O)Oc1ccc2c(c1)Oc1cc(OC)ccc1C21OC(=O)c2ccccc21 (stereo not drawn) [Compound 2, reference compound] | −0.4 | 11.4 | 11.8 | D (ΔF−ΔF0 is less than 15) | a precipitate or aggregate of the detection material is formed in the solution |  |
| CN(C)c1ccc(/N=N/c2ccc(C(=O)NCCCOC(=O)/C(C#N)=C/c3ccccc3C(=O)Oc3ccc4c(c3)Oc3cc(O)ccc3C43OC(=O)c4cc(NC(=S)NCC(=O)O)ccc43)cc2)cc1 (stereo not drawn) [Compound 3] | 6.8 | 36.9 | 30.1 | B (ΔF−ΔF0 is 25 or more and less than 40) |  |  |
| CN(C)c1ccc(/N=N/c2ccc(C(=O)NCCCOC(=O)/C(C#N)=C/c3ccccc3C(=O)Oc3cc4c(cc3Cl)C3(OC(=O)c5ccccc53)c3cc(Cl)c(O)cc3O4)cc2)cc1 (stereo not drawn) [Compound 4] | 4.9 | 10.3 | 5.4 | D (ΔF−ΔF0 is less than 15) |  |  |
| COCCOCCOCCOCCNC(=S)Nc1ccc2c(c1)C(=O)OC21c2ccc(O)cc2Oc2cc(OC(=O)c3ccccc3/C=C(\C#N)C(=O)OCCCNC(=O)c3ccc(/N=N/c4ccc(N(C)C)cc4)cc3)ccc21 (stereo not drawn) [Compound 5] | 1.2 | 42.3 | 41.1 | A (ΔF−ΔF0 is 40 or more) |  |  |
| CN(C)c1ccc(/N=N/c2ccc(C(=O)NCCCOC(=O)/C(C#N)=C/c3ccccc3C(=O)Oc3cc4c(cc3F)C3(OC(=O)c5ccccc53)c3cc(F)c(O)cc3O4)cc2)cc1 (stereo not drawn) [Compound 6] | 13.3 | 34.0 | 20.7 | C (ΔF−ΔF0 is 15 or more and less than 25) |  |  |
| CN(C)c1ccc(/N=N/c2ccc(C(=O)NCCCOC(=O)/C(C#N)=C/c3ccccc3C(=O)Oc3ccc4c(c3)Oc3cc(O)ccc3C43OC(=O)c4c(Cl)c(Cl)c(Cl)c(Cl)c43)cc2)cc1 (stereo not drawn) [Compound 7] | 2.2 | 8.8 | 6.5 | D (ΔF−ΔF0 is less than 15) |  |  |
| O=C1OC2(c3ccc(O)cc3Oc3cc(O)ccc32)c2ccccc21 [fluorescein] |  |  |  |  |  | higher water solubility than o-methyl fluorescein |
